Here are results for four molecules from publication PMC6318274, “Lattice engineering enables definition of molecular features allowing for potent small-molecule inhibition of HIV-1 entry” (Nature Communications, 2019).

The subject of series [1] is TZM-bl cells. Set-up: method as in literature. The following applies: not measured here; ref literature; cited from earlier work.
The subject of series [2] is HIV-1 Env-pseudoviruses (30-strain panel). The series is described as follows: Neutralization assay, cross-clade 30-strain panel (Env-pseudoviruses, TZM-bl target cells). It counts as cell-based. The settings on record: for IC50: Human immunodeficiency virus 1, TZM-bl; for number of viruses neutralized: of the 30 viruses. The protocol: Neutralization was measured using single-round-of-infection HIV-1 Env-pseudoviruses and TZM-bl target cells (ARP Cat No. #8129)[44],[45]. Compounds were prepared at 400 μM with 4% DMSO (dimethyl sulfoxide) in PBS (phosphate-buffered saline) and diluted 20 times as the starting concentration for serial dilution in the neutralization assays. […] After incubation at 37 °C for 2 days, infection of target cells was measured by luciferase activity. Neutralization curves were fit by nonlinear regression using a five-parameter hill slope equation[45].

The subject of another series is HIV-1 strain NL4-3. In words: Entry inhibition of laboratory-adapted HIV-1 strain NL4-3. It counts as cell-based.
Series [3] relates to TZM-bl cells. In words: Cytotoxicity in the neutralization assay (TZM-bl cells + drugs). The settings on record: highest concentration (20 μM).
The mark [4] stands for this setting: 242-14 (Clade AG), read-out: IC50.
[5] abbreviates: 247-23 (Clade D), read-out: IC50.
[6] abbreviates: 0330.v4.c3 (Clade A), read-out: IC50.
Where [7] appears, read: 7165.18 (Clade B), read-out: IC50.
The mark [8] stands for this setting: BJOX028000.10.3 (Clade AE), read-out: IC50.
Where [9] appears, read: BL01.DG (Clade B), read-out: IC50.
Setting [10] is: C4118.09 (Clade AE), read-out: IC50.
Where [11] appears, read: CAP210.E8 (Clade C), read-out: IC50.
[12] abbreviates: CH119.10 (Clade BC), read-out: IC50.
[13] abbreviates: CNE10 (Clade B), read-out: IC50.
[14] abbreviates: CNE20 (Clade BC), read-out: IC50.
Where [15] appears, read: CNE56 (Clade AE), read-out: IC50.
Where [16] appears, read: DJ263.8 (Clade AG), read-out: IC50.
Where [17] appears, read: DU156.12 (Clade C), read-out: IC50.
Setting [18] is: Geomean, 30-strain panel, read-out: Geometric mean IC50.
Setting [19] is: KER2008.12 (Clade A), read-out: IC50.
Where [20] appears, read: MB201.A1 (Clade A), read-out: IC50.
[21] abbreviates: NKU3006.ec1 (Clade D), read-out: IC50.
Setting [22] is: P0402.c2.11 (Clade G), read-out: IC50.
The mark [23] stands for this setting: PVO.04 (Clade B), read-out: IC50.
Setting [24] is: R3265.c6 (Clade AE), read-out: IC50.
[25] abbreviates: REJO.67 (Clade B), read-out: IC50.
Setting [26] is: T253-11 (Clade AG), read-out: IC50.
Where [27] appears, read: T280-5 (Clade AG), read-out: IC50.
The mark [28] stands for this setting: ZM106.9 (Clade C), read-out: IC50.

“Also recorded” adds a separate entry of the source. Like-named read-outs stand apart in the source and are kept apart here.

As usually defined, the IC50 is the midpoint of a concentration-inhibition curve. Turning to `COc1ccnc2[nH]cc(C(=O)C(=O)N3CCN(C(=O)c4ccccc4)C[C@H]3C)c12` [BMS-378806, 4-benzoyl-1-[(4-methoxy-1H-pyrrolo[2,3-b]pyridin-3-yl)oxoacetyl]-2-(R)-methylpiperazine, reference compound], in the series on TZM-bl cells [1], the Cytotoxicity result is on record as “lack of cytotoxicity”. Moreover, the concentration for half-maximal inhibition (IC50) in series [2] (read-out: Geometric mean IC50) is above 912 nM.
With `O=C(C(=O)N1CCN(C(=O)c2ccccc2)CC1)c1c[nH]c2c(F)ccc(Br)c12` [BMS-386150], the “fold lower neutralization potency than BMS-378806” value in series [2] (30-strain panel) was ~ 7 fold. Further, the half-maximal inhibitory concentration (IC50) in series [2] (setting [4]) was 7020 nM; in series [2] (setting [5]) it was above 20000 nM; in series [2] (setting [6]) it was above 20000 nM; in series [2] (426c (Clade C), read-out: IC50), 6620 nM; in series [2] (setting [7]), above 20000 nM; in series [2] (B41 (Clade B), read-out: IC50), 117 nM. For the same molecule, the IC50 in series [2] (setting [8]) is above 20000 nM; in series [2] (setting [9]), above 20000 nM; in series [2] (setting [10]), above 20000 nM; in series [2] (setting [11]), above 20000 nM; in series [2] (setting [12]), 13700 nM; in series [2] (setting [13]), 509 nM. For the same molecule, the half-maximal inhibitory concentration (IC50) in series [2] (setting [14]) was above 20000 nM; in series [2] (setting [15]), above 20000 nM; in series [2] (setting [16]), above 20000 nM; in series [2] (setting [17]), 1350 nM; in series [2] (setting [18]), above 6720 nM; in series [2] (setting [19]), above 20000 nM. Also, the IC50 in series [2] (setting [20]) was above 20000 nM; in series [2] (setting [21]) it was 256 nM; in series [2] (setting [22]) it was above 20000 nM; in series [2] (setting [23]) it was 664 nM; in series [2] (setting [24]), above 20000 nM; in series [2] (setting [25]) it was above 20000 nM. Besides, the half-maximal inhibitory concentration (IC50) in series [2] (setting [26]) was found to be 541 nM; in series [2] (setting [27]), 2020 nM; in series [2] (setting [28]), 10800 nM; in series [2] (read-out: IC50), 4670 nM.
As usually defined, the EC50 is the concentration needed to bring the measured effect to its halfway point. Take `COc1cnc(-c2csc(CN(C)CCCN(C)C)n2)c2[nH]cc(C(=O)C(=O)N3CCC(=C(C#N)c4ccccc4)CC3)c12` [BMS-814508]: in the series with HIV-1 strain NL4-3 (Human immunodeficiency virus 1, NL43, NL4-3), a half-maximal effect (EC50) was put at 0.495 ± 0.069 nM. Further, in the series on HIV-1 strain NL4-3 (NL4-3 EC50), the “fold more potent than BMS-626529” value worked out at 4 fold. Also, the half-maximal inhibitory concentration (IC50) in series [2] (setting [4]) amounted to 15 nM; in series [2] (setting [5]), 16 nM; in series [2] (setting [6]) it was 96 nM; in series [2] (426c (Clade C), read-out: IC50) it was 36 nM; in series [2] (setting [7]) it was 491 nM; in series [2] (B41 (Clade B), read-out: IC50), 1 nM. Moreover, the IC50 was above 4000 nM in series [2] (setting [8]); 2810 nM in series [2] (setting [9]); 2000 nM in series [2] (setting [10]); 400 nM in series [2] (setting [11]); 4 nM in series [2] (setting [12]); 4 nM in series [2] (setting [13]). In addition, the half-inhibitory concentration (IC50) in series [2] (setting [14]) is 143 nM; in series [2] (setting [15]), above 4000 nM; in series [2] (setting [16]), below 0.3 nM; in series [2] (setting [17]), 20 nM; in series [2] (setting [18]) it was above 51 nM; in series [2] (setting [19]) it was 165 nM. Besides, the IC50 in series [2] (setting [20]) was 192 nM; in series [2] (setting [21]), 1 nM; in series [2] (setting [22]) it was 12 nM; in series [2] (setting [23]), 2 nM; in series [2] (setting [24]), 1060 nM; in series [2] (setting [25]), 2730 nM. Also, the concentration for half-maximal inhibition (IC50) in series [2] (setting [26]) was below 0.3 nM; in series [2] (setting [27]) it was 0.8 nM; in series [2] (setting [28]), 31 nM; in series [2] (read-out: IC50), 8 nM. In series [2], the “number of viruses neutralized” value stood at 28. The Cytotoxicity entry in the series on TZM-bl cells [3] is given as “showed cytotoxicity; also recorded: Cytotoxicity was observed”.
For the molecule `O=C(c1ccsc1)N1CCN(C(=O)C2(c3cccc(Cl)c3)CC2)CC1` [Compound 484, reference compound], the half-inhibitory concentration (IC50) in series [2] (setting [4]) is above 20000 nM; in series [2] (setting [5]), above 20000 nM; in series [2] (setting [6]) it was above 20000 nM; in series [2] (426c (Clade C), read-out: IC50) it was 13400 nM; in series [2] (setting [7]) it was above 20000 nM; in series [2] (B41 (Clade B), read-out: IC50), 1730 nM. The IC50 in series [2] (setting [8]) is above 20000 nM; in series [2] (setting [9]), above 20000 nM; in series [2] (setting [10]) it was above 20000 nM; in series [2] (setting [11]) it was above 20000 nM; in series [2] (setting [12]), above 20000 nM; in series [2] (setting [13]) it was 1940 nM. Moreover, the IC50 was above 20000 nM in series [2] (setting [14]); above 20000 nM in series [2] (setting [15]); 2780 nM in series [2] (setting [16]); 7690 nM in series [2] (setting [17]); above 12300 nM in series [2] (setting [18]); above 20000 nM in series [2] (setting [19]). Also, the half-maximal inhibitory concentration (IC50) is above 20000 nM in series [2] (setting [20]); 1650 nM in series [2] (setting [21]); above 20000 nM in series [2] (setting [22]); 7870 nM in series [2] (setting [23]); above 20000 nM in series [2] (setting [24]); above 20000 nM in series [2] (setting [25]). Also, the IC50 in series [2] (setting [26]) is 3350 nM; in series [2] (setting [27]), 11900 nM; in series [2] (setting [28]) it was above 20000 nM; in series [2] ([…], read-out: IC50) it was 13600 nM; in series [2] (read-out: IC50) it was above 20000 nM. Moreover, in series [2], the “number of viruses neutralized” value turned out to be 11.
